Series [1] deals with human U251-MG glioblastoma cells. The series can be described thus: CyQuant cell count / proliferation assay. It counts as cell-based. The conditions noted are these: 48 h. On the procedure: 1 Compound 1 inhibits human U251 glioblastoma cell growth and labeled inositol phosphate levels. (A) Schematic of inositol phosphate metabolism. (B) Chemical structure of compound 1, indicating moiety A (blue highlight), the core (gray highlight), and moiety B (red highlight), and the IC50 value as determined by the kinase-GLO assay. (C) CyQuant cell count assay of 10,000 human U251-MG glioblastoma cells seeded per well, treated for 48 h with DMSO vehicle or 400 nM compound 1 (n = 8, ***p = 0.0046, unpaired t test). (D) HPLC analysis of ^3H-inositol phosphates from U251-MG cells treated with 400 nM compound 1 (red bars) or DMSO (blue bars) and metabolically labeled with ^3H-inositol for 48 h, expressed as the percentage of the inositol peak from the HPLC for InsP3, InsP4, InsP5, and InsP6, as indicated, *p < 0.05 by unpaired t test Bonferroni corrected for multiple comparisons. (E) Same data as in (D) replotted with a nonzero y-axis to facilitate visualizing differences between DMSO vs. compound treatment for each indicated inositol phosphate species, *p < 0.05 by unpaired t test Bonferroni corrected for multiple comparisons.
Error represents the standard error from 3 independent assays. (B) CyQuant cellular proliferation assay of 10,000 human U251-MG glioblastoma cells seeded per well, treated for 48 h with DMSO vehicle or 10 μM 14 (n = 8, ****p adj < 0.0001 by one-way ANOVA, Dunnett’s corrected; *p < 0.05 by unpaired t test). (C) HPLC analysis of ^3H-inositol phosphates from U251-MG cells treated with 10 μM compound 14 (red bars) or DMSO (blue bars) and metabolically labeled with ^3H-inositol for 48 h, expressed as a percentage of all the peaks detectable from the HPLC, *p < 0.05, **p < 0.01, ***p < 0.001 by unpaired t test compared to DMSO-treated control for all remaining panels, n = 3. (D) Same as (C) but expressed as a percentage of the inositol HPLC peak, n = 3. (E) Same as C but expressed as a percentage of all the inositol phosphate peaks combined from the HPLC, n = 3.

Series [2] is described as follows: Pharmacokinetic studies in mice. It counts as in vivo, male CD1 mice. The method, then: All the procedures related to animal handling, care, and treatment in this study were performed according to guidelines approved by the Institutional Animal Care and Use Committee (IACUC) of Pharmaron (PK-R-06012023 and PK-M-07182023), following the guidance of the Association for Assessment and Accreditation of Laboratory Animal Care (AAALAC). A group of 3 male CD1 mice (2 for exploratory PK) were dosed intravenously (IV) or intraperitoneally (IP) with a solution formulation of the tested compounds in 10% NMP, 5% Solutol in normal saline (v/v/v, 10:5:85). From each mouse, blood samples ([…]) were collected from the orbital vein such that samples were obtained at 0.083, 0.25, 0.5, 1, 2, 4, 8, and 24 h post dose. At each time point, blood samples were collected from three mice in labeled microcentrifuge tubes containing EDTA-K2 as an anticoagulant. Plasma samples were separated by centrifugation of whole blood and stored at −75 ± 15 °C until bioanalysis. All samples were processed for analysis by precipitation using acetonitrile (ACN) and analyzed with a fit-for-purpose LC/MS/MS method (the below quantifiable limit (BLOQ) was 5.0 ng/mL). Pharmacokinetic parameters were calculated by a noncompartmental analysis model using WinNonlin 8.3.

In series [3] the target is T1, purified recombinant human IP6K2 kinase domain (Homo sapiens, UniProt Q9UHH9).
T1 sequence (Q9UHH9 1-426): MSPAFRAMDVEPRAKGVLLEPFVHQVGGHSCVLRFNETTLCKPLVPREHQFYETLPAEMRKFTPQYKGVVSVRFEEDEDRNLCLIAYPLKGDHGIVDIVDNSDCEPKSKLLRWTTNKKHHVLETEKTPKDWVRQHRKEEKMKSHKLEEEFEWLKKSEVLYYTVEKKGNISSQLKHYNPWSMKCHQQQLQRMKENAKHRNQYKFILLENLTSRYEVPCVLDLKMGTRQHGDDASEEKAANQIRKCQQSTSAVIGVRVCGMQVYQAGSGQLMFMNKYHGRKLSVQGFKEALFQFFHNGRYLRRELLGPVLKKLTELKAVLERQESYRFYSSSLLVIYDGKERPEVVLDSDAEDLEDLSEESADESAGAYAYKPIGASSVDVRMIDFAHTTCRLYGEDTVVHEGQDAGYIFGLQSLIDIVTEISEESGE
Put plainly: IP6K2 IC50 determination, malachite green Pi release assay. The format is biochemical. The method, then:
IP6K2 IC50 values were determined using the purified recombinant human IP6K2 kinase domain expressed in a 384-well clear polystyrene plate (VWR 82051-264). This human IP6K2 kinase domain (100 nM) was used at 37 °C in 50 μL reaction mixtures containing 5.0 μM human Dipp1, 50 mM Tris (pH 6.9), 10 mM MgCl2, 0.02% Triton X-100, 25 μM InsP6, and 50 μM ATP for 30 min. Pi release was determined with a malachite green colorimetric assay. Reactions were quenched by the addition of 12.5 μL of phosphate detection reagent (MAK3071KT, Sigma-Aldrich). Pi release was quantified from the absorbance at 620 nm by using appropriate standards.

The mark [4] stands for this setting: male, CD1, mouse, plasma, IV, dose 2.75 mg/kg.

The values below come from PMC12362615, “Design, Synthesis, and Cellular Characterization of a New Class of IPMK Kinase Inhibitors” (Journal of Medicinal Chemistry, 2025).

The structures appear in SMILES notation.

As for `c1cc(-c2onc3ccc(-c4nnn[nH]4)cc23)cc(C2CCN(C3CCC3)CC2)c1` [Compound 14, 3-(3-(1-Cyclobutylpiperidin-4-yl)phenyl)-5-(1H-tetrazol-5-yl)benzo[c]isoxazole], in series [1] (1.0 μM), the cell growth result is given as “decreased cell growth”. The “cell growth, CyQuant cellular proliferation assay” value in series [1] (10 μM, vs DMSO) was “inhibits cell growth”. The “Vss (L/kg)” value in series [2] (IV, dose 2.75 mg/kg) is reported as “increased”. Further, in series [2] (male, CD1, mouse, plasma, 10 mg/kg via IV and IP administration (route of this value not stated), n = 3), the exposure AUC(0-t) (commonly exposure summed from dosing to a finite time, without extrapolation to infinity) was 8.26 µM·h. In series [2] (setting [4]), the area under the curve AUC(0-t) stood at 4.6 µM·h; the Cmax (in general, the highest concentration seen after dosing) was 28.3 µM; the clearance (commonly the rate of elimination divided by the concentration) came to 22.8 mL/min/kg; the half-life (in general, how long it takes for the measured level to halve) is 1.95 h. In addition, in series [2] (male, CD1, mouse, plasma, IV, dose 2.75 mg/kg, read-out: Vss), the Vd amounted to 0.39 L/kg. The bioavailability (commonly dose-corrected exposure relative to a reference, in per cent) in series [2] (male, CD1, mouse, plasma, intraperitoneal, 10 mg/kg, IP vs IV, n = 3) worked out at 82%. In addition, in series [3] (Table S1, ratio of IC50 values), the IP6K2/IPMK was determined as 12. Besides, in series [3] (from Table S1), the “selectivity for IPMK over IP6K2” value was determined as 12 fold. The IC50 (usually the midpoint of a concentration-inhibition curve) in series [3] (supplementary csv) worked out at 374 ± 159 nM.
